Measurements from EP2348142B1, “Method and composition for removing scale deposits formed on a metal surface within a steam generating system” (Westinghouse Electric Company LLC, priority 2010, dated 2011).
Where two headings read alike, the source gives them in different places.

Tests used:
[1] = at 25 °C; cited from earlier work
[2] = Example 11; base raised from 0.15-0.2 wt% to 5 wt%; covers both solids
Description: In order to verify this assumption, solutions of TMAH were compared with those of the similarly strong base choline hydroxide (CholOH). Mixtures of 0.06 g sand + 0.06 g boehmite or 0.06 g sand + 0.06 g boehmite + 0.68 g magnetite were exposed to volumes of 40 mL of several solutions of TMAH or CholOH for 48 hours at a temperature of 80 °C. Each experiment was carried out in duplicate. The spent test solutions were analyzed to determine the concentrations of dissolved Si, Al, and Fe and the percentage of each of the corresponding oxides in the test solutions was calculated.

[3] = Example 4; covers B+S and B+S+M
Description: Another example embodiment of the present invention was evaluated in laboratory testing using mixtures of 0.06 g of boehmite and 0.06 g of silica sand (B+S) or of 0.06 g of boehmite, 0.06 g of silica sand, and 0.68 g of magnetite (B+S+M). These mixtures were heated at 80 °C for 1 day, with 40 mL volumes of a combined solution of 50.8 g/L (5.08%) of TMAH and 10 g•L^-1 (1%) of ethylenediaminetetra-acetic acid (EDTA) in de-ionized water.
At the end of 1 day, the solutions were removed for analysis of dissolved Al, Si, and Fe. In addition to fractions of each oxide dissolved during the experiment, the mole ratios of the amount of metals dissolved to base (TMAH or DMA) introduced were also calculated.

[4] = Example 1; both stages; covers B+S and B+S+M
Description: An example embodiment of the present invention was evaluated in laboratory testing using mixtures of 0.06 g of boehmite and 0.06 g of silica sand (B+S) or of 0.06 g of boehmite, 0.06 g of silica sand, and 0.68 g of magnetite (B+S+M). These mixtures were heated at 80 °C for 1 day, with 40 mL volumes of a solution of 381 ppm (0.0381%) of TMAH in de-ionized water, adjusted with boric acid to a room-temperature pH of 11.0.
At the end of 1 day, the solutions were removed for analysis of dissolved Al, Si, and Fe, and the experiment on the residual solids was continued for an additional 2-day interval using fresh volumes of the original solutions. In addition to the fractions of each oxide dissolved during the experiment, the mole ratios of metals dissolved to base (TMAH or DMA) introduced were also calculated.

[5] = Example 3; both stages; covers B+S and B+S+M
Description: Another example embodiment of the present invention was evaluated in laboratory testing using mixtures of 0.06 g of boehmite and 0.06 g of silica sand (B+S) or of 0.06 g of boehmite, 0.06 g of silica sand, and 0.68 g of magnetite (B+S+M). These mixtures were heated at 80 °C for 1 day with 40 mL volumes of a solution of 46 ppm (0.0046%) of TMAH in de-ionized water, having a room-temperature pH of 10.8.
At the end of 1 day, the solutions were removed and analyzed for dissolved Al, Si, and Fe. The experiment on the residual solids was continued for an additional 2-day interval using fresh volumes of the original solutions. In addition to the fraction of each oxide dissolved during the experiment, the mole ratios of metals dissolved to base (TMAH or DMA) introduced were also calculated.

[6] = Example 2; for ratio of dissolved metals (Al, Si and Fe) to base: unadjusted solutions, both stages
Description: Other example embodiments of the present invention were evaluated in laboratory testing using mixtures of 0.02 g of boehmite and 0.02 g of silica sand (B+S), and 0.23 g of magnetite (B+S+M). These mixtures were heated at 80 °C for 1 day, with 40 mL volumes of solutions of 1500 ppm (0.15%) of TMAH in de-ionized water, without pH adjustment, adjusted with boric acid to a room-temperature pH of 11.0, or adjusted with boric acid to a room-temperature pH of 9.0.
All the solutions were sparged with nitrogen for 15 minutes at the beginning of each experiment.
After one day (∼ 24 hours), the solutions were removed for analysis of dissolved Al, Si, and Fe. The experiment on the residual solids was continued for an additional 2-day interval using fresh volumes of the original solutions. In addition to the fractions of each oxide dissolved during the experiment, the mole ratios of metals dissolved to base (TMAH or DMA) introduced were also calculated.

[7] = Dissolution of boehmite (Example 5); details: 0.03 g boehmite alone
[8] = Coupon corrosion test with pre-heated TMAH solutions (Example 9); details: 5 wt% TMAH + 1 wt% EDTA
Description: In order to determine the effect of possible thermal degradation of TMAH on its corrosivity towards steel, C1018 carbon steel coupons were tested in three solutions of 5 wt% TMAH + 1 wt% EDTA. […] One of these solutions was not pre-exposed to elevated temperatures. The second solution was exposed to a temperature of 130 ±10 °C for two days before being used in the test. During pre-heating period, the 20-mL Parr bomb in which the solution was heated was almost full, leaving very little vapor space above the solution. The third solution was similarly pre-heated at 130 ±10 °C for two days, but the Parr bomb was only half-full, holding 10 mL of solution and 10 mL of air. The three TMAH solutions were later used in testing of 1018 carbon steel coupons in 40 mL of testing solution for 1 week.

[9] = cited from earlier work

Row | Structure (SMILES) | pH [1] | extent of dissolution of boehmite increased by a factor [2] | ratio of total dissolved metal (predominantly dissolved Al) to introduced base [3] | ratio of dissolved Al to base [4] | ratio of dissolved Al to base [5] | ratio of dissolved metals (Al, Si and Fe) to base [6] | also measured
1 | C1=NCCCN2CCCCC12 (stereo not shown) [1,5-diazabicyclo(5,4,0)undec-5-ene] | 13.40 |  |  |  |  |  | 
2 | C[N+](C)(C)CCO.[OH-] [CholOH, choline hydroxide] |  | approximately 1.7 |  |  |  |  | 
3 | CNC [DMA, dimethylamine, reference compound] |  |  | 0.02-0.04 | 0.06-0.07 | 0.04-0.10 | 0.03-0.06 | pKa [1]: about 10.61
4 | C[N+](C)(C)C.[OH-] [TMAH, Tetramethylammonium hydroxide] |  | approximately 1.7 | 0.15-0.16 | 0.24-0.29 | 0.05-0.27 | 0.09-0.10 | more effective than DMA by a factor (mole ratio calculations) [3]: 4-7; dissolution of Al higher by a factor, versus DMA solution [7]: 13; pH of the solution ([8]; after pre-heating in the absence of air): approximately 13.4; pH of the solution ([8]; before pre-heating): approximately 13.0; mole ratios higher by factors, TMAH versus DMA ([6]; pH adjusted solutions): 2-8; thermally stable in aqueous solutions up to [9]: 130-135 °C
5 | CCCCN [mono-N-butylamine] | 10.61 |  |  |  |  |  | 
